Experimental data published in US20240226049A1, “METHODS OF TREATMENT USING BEMPEDOIC ACID” (Esperion Therapeutics, Inc., priority 2023, published 2024).

Columns and labels:
[1] = test system: statin-intolerant patients with or at high risk of CVD; experiment: CLEAR OUTCOMES trial (Example 1): adverse events and safety laboratory findings; format: in vivo, human
Text: The CLEAR OUTCOMES trial was a randomized, placebo-controlled, double-blind trial that enrolled patients at 1250 sites in 32 countries. An independent Data Monitoring Committee reviewed safety and efficacy data during the trial.
Patients 18 to 85 years of age were eligible for enrollment if they met either of two criteria for increased cardiovascular risk, a prior cardiovascular event (secondary prevention) or clinical features that placed them at high risk for a cardiovascular event (primary prevention). (Nicholls S. Lincoff A M, Bays H E, et al. Rationale and design of the CLEAR-outcomes trial: Evaluating the effect of bempedoic acid on cardiovascular events in patients with statin intolerance. Am Heart J. 2021 May; 235:104-112) All patients provided written informed consent. Patients had to report statin intolerance due to an adverse effect that started or increased during statin therapy and resolved or improved after statin therapy was discontinued. Patients could be enrolled if they tolerated a very low average daily statin dose (e.g., an average daily dose of rosuvastatin <5 mg, atorvastatin <10 mg, simvastatin <10 mg, lovastatin <20 mg, pravastatin <40 mg, fluvastatin <40 mg, or pitavastatin <2 mg). Other lipid-lowering therapies were permitted, including ezetimibe, niacin, bile acid resins, fibrates, and/or proprotein convertase subtilisin kexin type 9 (PCSK9) inhibitors. Full inclusion and exclusion criteria are provided in Nicholls et al. (Am Heart J. 2021).
Eligible patients entered a 4-week run-in period during which patients were treated with single-blind placebo. If patients were intolerant to placebo treatment or if adherence was <80% by tablet count, they were not eligible for randomization. Patients who successfully completed the run-in period were randomly assigned in a 1:1 ratio to receive bempedoic acid at an oral dose of 180 mg or matching placebo, administered daily. Beginning 6 months after enrollment, the central laboratory notified the investigator if the patient's LDL-cholesterol level was ≥25% higher than baseline. These patients were counseled on healthy dietary guidelines and reminded to take all lipid-regulating medications. If repeat testing confirmed that LDL-cholesterol value met the threshold criteria, the provider could adjust the lipid-lowering treatment regimen per standard of care and local guidelines.

[2] = test system: statin-intolerant patients with or at high risk of CVD; format: in vivo
Procedure: CLEAR OUTCOMES (described in Example 1) was a randomized double-blind trial comparing orally administered bempedoic acid 180 mg once daily to placebo in statin-intolerant patients with or at high risk of CVD and an LDL-C ≥2.59 mmol/L. This prespecified analysis reports the time to event analysis of bempedoic acid versus placebo on the primary endpoint (MACE-4; composite of CV death, nonfatal MI, nonfatal stroke, or coronary revascularization) and key secondary end-point (MACE-3; death from cardiovascular causes, nonfatal myocardial infarction, nonfatal stroke) by baseline glycaemia status (diabetes, prediabetes, and normoglycaemia), and impact on HbA1c at 1 and 3 years and on NOD for subjects without diabetes at baseline.

[3] = at any visit, repeated and confirmed, N = 7001
[4] = baseline diabetes, median 3.4 year follow up
[5] = baseline normoglycaemia, p<0.0001
[6] = baseline normoglycemia, median 3.4 year follow up
[7] = baseline pre-diabetes, median 3.4 year follow up
[8] = baseline pre-diabetes, p<0.0001
[9] = diabetes, primary prevention CVD risk group
[10] = diabetes, secondary prevention CVD risk group
[11] = vs placebo, baseline normoglycemia
[12] = vs placebo, baseline pre-diabetes
[13] = vs placebo, diabetes, primary prevention
[14] = vs placebo, diabetes, secondary prevention
[15] = vs placebo, history of one or more cardiovascular events
[16] = vs placebo, no prior history of cardiovascular events

CC(C)(CCCCCC(O)CCCCCC(C)(C)C(=O)O)C(=O)O [Bempedoic Acid, Bempedoic acid]
New onset diabetes in patients with normoglycemia at baseline, % ([1]; 180 mg oral daily): 5.5% | New onset diabetes in patients with pre-diabetes at baseline, % ([1]; 180 mg oral daily): 19.5% | Adjudicated tendon rupture, % ([1]; 180 mg oral daily, N = 7001): 1.2% | Adverse event leading to drug discontinuation, % ([1]; 180 mg oral daily, N = 7001): 11.0% | Any muscle disorder, % ([1]; 180 mg oral daily, N = 7001): 15.0% | Any treatment emergent adverse event, % ([1]; 180 mg oral daily, N = 7001): 86.3% | Atrial fibrillation, % ([1]; 180 mg oral daily, N = 7001): 3.3% | Cholelithiasis, % ([1]; 180 mg oral daily, N = 7001): 2.2% | Discontinuation of treatment due to myalgia, % ([1]; 180 mg oral daily, N = 7001): 1.8% | Elevated hepatic enzymes, % ([1]; 180 mg oral daily, N = 7001): 4.5% | Gout, % ([1]; 180 mg oral daily, N = 7001): 3.1% | Hypoglycemia, % ([1]; 180 mg oral daily, N = 7001): 4.3% | Malignancies, % ([1]; 180 mg oral daily, N = 7001): 4.7% | Metabolic acidosis, % ([1]; 180 mg oral daily, N = 7001): 0.2% | Myalgia, % ([1]; 180 mg oral daily, N = 7001): 5.6% | Neurocognitive disorders, % ([1]; 180 mg oral daily, N = 7001): 0.8% | Serious treatment emergent adverse event, % ([1]; 180 mg oral daily, N = 7001): 25.4% | Tendinopathies, % ([1]; 180 mg oral daily, N = 7001): 1.7% | Change from baseline in creatinine levels ([1]; after 6 months): 0.05 ± 0.2 mg/dL | Change from baseline in uric acid levels ([1]; after 6 months): 0.76 ± 1.2 mg/dL | Creatine kinase levels >5x ULN (repeated and confirmed), % ([1]; at any visit, N = 7001): 0.1% | Creatine kinase levels >5x ULN (single occurrence), % ([1]; at any visit, N = 7001): 0.6% | Alanine aminotransferase level >3 times ULN, % [1, 3]: 1.2% | Aspartate aminotransferase level >3 times ULN, % [1, 3]: 1.1% | Premature discontinuation of study drug ([1]; bempedoic acid-treated patients, full population): 29.1% | Worsening hyperglycemia, % ([1]; in patients with diabetes at baseline): 22.7% | New onset diabetes in patients without diabetes at baseline, % ([1]; investigator-reported, 180 mg oral daily): 16.1% | tolerability of treatment ([1]; rates of discontinuation for any reason similar to placebo): well tolerated | Time to First Adjudicated MACE-3, Diabetes, % of patients [2, 4]: 8.9% | Time to First Adjudicated MACE-3, Diabetes, patients with event/patients [2, 4]: 279/3144 | Time to First Adjudicated MACE-4, Diabetes, % of patients [2, 4]: 11.9% | Time to First Adjudicated MACE-4, Diabetes, patients with event/patients [2, 4]: 374/3144 | LDL-C reduction compared to placebo at month 6, patients with diabetes ([2]; baseline diabetes, p<0.0001): 21.2% | LDL-C reduction compared to placebo at month 6 in absolute terms, patients with diabetes ([2]; baseline diabetes, p<0.0001): 0.73 mmol/L | LDL-C reduction compared to placebo at month 6, patients with normoglycaemia [2, 5]: 22.0% | LDL-C reduction compared to placebo at month 6 in absolute terms, patients with normoglycaemia [2, 5]: 0.81 mmol/L | Time to First Adjudicated MACE-3, Normoglycemia, % of patients [2, 6]: 7.2% | Time to First Adjudicated MACE-3, Normoglycemia, patients with event/patients [2, 6]: 67/937 | Time to First Adjudicated MACE-4, Normoglycemia, % of patients [2, 6]: 10.1% | Time to First Adjudicated MACE-4, Normoglycemia, patients with event/patients [2, 6]: 95/937 | Time to First Adjudicated MACE-3, Pre-Diabetes, % of patients [2, 7]: 7.9% | Time to First Adjudicated MACE-3, Pre-Diabetes, patients with event/patients [2, 7]: 229/2911 | Time to First Adjudicated MACE-4, Pre-Diabetes, % of patients [2, 7]: 12.0% | Time to First Adjudicated MACE-4, Pre-Diabetes, patients with event/patients [2, 7]: 350/2911 | LDL-C reduction compared to placebo at month 6, patients with pre-diabetes [2, 8]: 20.7% | LDL-C reduction compared to placebo at month 6 in absolute terms, patients with pre-diabetes [2, 8]: 0.76 mmol/L | Time to First Adjudicated MACE-3, Diabetes, Primary Prevention, % of patients [2, 9]: 4.9% | Time to First Adjudicated MACE-3, Diabetes, Primary Prevention, patients with event/patients [2, 9]: 67/1369 | Time to First Adjudicated MACE-4, Diabetes, Primary Prevention, % of patients [2, 9]: 6.4% | Time to First Adjudicated MACE-4, Diabetes, Primary Prevention, patients with event/patients [2, 9]: 87/1369 | Time to First Adjudicated MACE-3, Diabetes, Secondary Prevention, % of patients [2, 10]: 11.9% | Time to First Adjudicated MACE-3, Diabetes, Secondary Prevention, patients with event/patients [2, 10]: 212/1775 | Time to First Adjudicated MACE-4, Diabetes, Secondary Prevention, % of patients [2, 10]: 16.2% | Time to First Adjudicated MACE-4, Diabetes, Secondary Prevention, patients with event/patients [2, 10]: 287/1775 | reduction in risk of MACE (CV death, non-fatal MI or non-fatal stroke), adult with diabetes ([2]; vs placebo, 180 mg oral daily): about 20% | reduction in risk of MACE (CV death, non-fatal MI, non-fatal stroke or coronary revascularization), adult with diabetes ([2]; vs placebo, 180 mg oral daily): about 17% | Time to First Adjudicated MACE-3, Diabetes, HR ([2]; vs placebo, baseline diabetes): 0.80 | Time to First Adjudicated MACE-4, Diabetes, HR ([2]; vs placebo, baseline diabetes): 0.83 | Time to First Adjudicated MACE-3, Normoglycemia, HR [2, 11]: 0.96 | Time to First Adjudicated MACE-4, Normoglycemia, HR [2, 11]: 0.84 | Time to First Adjudicated MACE-3, Pre-Diabetes, HR [2, 12]: 0.92 | Time to First Adjudicated MACE-4, Pre-Diabetes, HR [2, 12]: 0.94 | Time to First Adjudicated MACE-3, Diabetes, Primary Prevention, HR [2, 13]: 0.65 | Time to First Adjudicated MACE-4, Diabetes, Primary Prevention, HR [2, 13]: 0.70 | Time to First Adjudicated MACE-3, Diabetes, Secondary Prevention, HR [2, 14]: 0.86 | Time to First Adjudicated MACE-4, Diabetes, Secondary Prevention, HR [2, 14]: 0.87 | reduction in risk of MACE (CV death, non-fatal MI or non-fatal stroke), adult with diabetes at risk for a secondary MACE [2, 15]: at least 14% | reduction in risk of MACE (CV death, non-fatal MI, non-fatal stroke or coronary revascularization), adult with diabetes at risk for a secondary MACE [2, 15]: about 13% | reduction in risk of MACE (CV death, non-fatal MI or non-fatal stroke), adult with diabetes at risk for a primary MACE [2, 16]: about 35% | reduction in risk of MACE (CV death, non-fatal MI, non-fatal stroke or coronary revascularization), adult with diabetes at risk for a primary MACE [2, 16]: about 30%
